The SangsterLogP compilation

Row | Compound | logP
1 | CNc1nnc(-c2ccc(OC(F)(F)F)cc2)c(=O)[nH]1 | 1.86
2 | CSc1nnc(CC(C)C)c(=O)n1N | 1.53
3 | CSc1nnc(-c2cc(Cl)cc(Cl)c2)c(=O)n1N | 3.02
4 | CN(C)c1nnc(C(C)(C)C)c(=O)n1C | 1.07
5 | CNc1nnc(-c2ccc(OC(F)(F)F)c(Cl)c2)c(=O)n1C | 2.35
6 | CNc1nnc(-c2ccc(F)c(Cl)c2)c(=O)n1C | 1.6
7 | Cc1nnc(C(C)(C)C)c(=O)n1N | 1.03
8 | CSc1nnc(C(C)C)c(=O)n1N | 1.23
9 | CNc1nnc(-c2cc(Cl)cc(Cl)c2)c(=O)n1N | 1.91
10 | CSc1nnc(C2CCOCC2)c(=O)n1N | 1.07
11 | Cn1c(S)nnc(-c2cc(Cl)cc(Cl)c2)c1=O | 3.43
12 | CCOc1cccc(-c2nnc(S)n(C)c2=O)c1 | 2.67
13 | CCOc1cccc(-c2nnc(C)n(NC)c2=O)c1 | 1.91
14 | CCCc1nnc(SC)n(N)c1=O | 1.19

The remaining lines, values ahead:

Row | logP | Compound
15 | 2.09 | CSc1nnc(C2CCCCC2)c(=O)n1N
16 | 0.52 | CNc1nnc(C(C)(C)C)c(=O)n1N
17 | 2.38 | Cn1c(S)nnc(-c2ccc(F)cc2)c1=O
18 | 2.67 | Nn1c(S)nnc(-c2cc(Cl)cc(Cl)c2)c1=O
19 | 0.15 | CSc1nnc(C)c(=O)n1N
20 | 1.31 | COc1nnc(C(C)(C)C)c(=O)n1N
21 | 2.35 | CSc1nnc(-c2ccc(OC(F)(F)F)cc2)c(=O)[nH]1
